Tests used:
Experiment in all cases: relative viability (nuclei count vs DMSO), 5 days (fraction); higher = more cells survive
Carfilzomib = compound: CC(C)C[C@H](NC(=O)[C@H](CCc1ccccc1)NC(=O)CN1CCOCC1)C(=O)N[C@@H](Cc1ccccc1)C(=O)N[C@@H](CC(C)C)C(=O)[C@@]1(C)CO1 [Carfilzomib]
Outline: (§1)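 Lung cancer cell lines were seeded into 1536-well plates, kept overnight at 37 °C and pinned with five library-drug doses (not always all listed) spaced by √10. After 5 days, nuclei were Hoechst-stained, imaged at 4× and counted with MetaXpress. Viability is treated-well nuclei over vehicle-well nuclei, taken as a median across plates. Plates needed control CV below 25% and at least one doubling.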

Olaparib = compound: O=C(c1cc(Cc2n[nH]c(=O)c3ccccc23)ccc1F)N1CCN(C(=O)C2CC2)CC1 [Olaparib]
Outline: as §1

Crizotinib = compound: C[C@@H](Oc1cc(-c2cnn(C3CCNCC3)c2)cnc1N)c1c(Cl)ccc(F)c1Cl [Crizotinib]
Outline: as §1

Cell Line | relative viability (Carfilzomib; 0.001 µM) | relative viability (Carfilzomib; 0.003162 µM) | relative viability (Carfilzomib; 0.01 µM) | relative viability (Carfilzomib; 0.03162 µM) | relative viability (Carfilzomib; 0.1 µM) | relative viability (Olaparib; 0.08 µM) | relative viability (Olaparib; 0.253 µM) | relative viability (Olaparib; 2.53 µM) | relative viability (Olaparib; 8 µM) | relative viability (Olaparib; 8 µM, anchor plate) | relative viability (Crizotinib; 0.01 µM) | relative viability (Crizotinib; 0.03162 µM) | relative viability (Crizotinib; 0.1 µM) | relative viability (Crizotinib; 0.3162 µM) | relative viability (Crizotinib; 1 µM) | relative viability (Crizotinib; 1 µM, anchor plate)
IA-LM | 0.884 | 0.879 | 0.94 | 0.107 | 0.0275 | 1.04 | 0.889 | 0.958 | 0.79 | 0.853 | 0.972 | 0.959 | 1.03 | 0.872 | 0.888 | 0.79
LC-2-ad | 1.04 | 1.16 | 1.03 | 0.473 | 0.226 | 1.09 | 0.89 | 0.943 | 0.866 | 0.697 | 0.921 | 1.02 | 1.02 |  |  | 0.458
LCLC-97TM1 | 0.907 | 1.07 | 0.999 | 0.368 | 0.0609 | 1.02 | 0.938 | 0.904 | 0.913 | 0.374 | 0.902 | 1.1 | 1 | 0.727 | 0.993 | 0.338
LCLC-103H | 0.923 | 0.974 | 0.998 | 0.984 | 0.459 | 1.04 | 0.893 | 1 | 0.862 | 0.749 | 0.906 | 1.02 | 1.07 | 0.991 | 1 | 1.01
LK-2 | 0.937 | 1.31 | 0.96 | 0.205 | 0.201 | 1.19 | 0.896 | 1.09 | 1.01 | 0.803 | 0.972 | 0.87 | 0.943 | 1.03 |  | 
LOU-NH91 | 0.962 | 1.08 | 0.745 | 0.314 | 0.309 | 1.16 | 0.943 | 1.01 | 0.962 | 0.914 | 0.945 | 0.905 | 1.09 | 0.949 | 0.985 | 0.729
LU99A | 0.991 | 1.06 | 0.982 | 0.893 | 0.433 | 0.98 | 0.837 | 0.776 | 0.532 | 0.266 | 0.894 | 1.03 |  | 0.795 | 0.969 | 0.547
LXF-289 | 0.992 | 1.04 | 1.02 | 0.371 | 0.104 | 1.12 | 0.979 | 1.1 | 1.03 | 1.07 | 0.967 | 1.03 | 1.08 | 0.844 | 1.01 | 0.809
NCI-H23 | 0.847 | 1.14 | 0.856 | 0.172 | 0.161 | 1.23 | 0.84 | 0.804 | 0.517 | 0.344 | 0.808 | 1.1 | 1.04 |  | 0.904 | 0.546
NCI-H322M | 0.911 | 1.07 | 1.04 | 0.961 | 0.376 | 1.06 | 0.888 | 0.98 | 0.815 | 0.745 | 0.778 |  | 1 | 0.922 | 0.955 | 0.93
NCI-H358 | 0.926 | 1.03 | 0.953 | 0.154 | 0.133 | 0.969 | 0.894 | 0.934 | 0.849 | 0.63 | 0.89 | 0.963 | 0.902 | 0.868 | 0.949 | 0.574
NCI-H441 | 1.2 | 1.19 | 0.432 | 0.151 | 0.118 | 1.13 | 1 | 0.942 | 0.76 | 0.525 | 0.99 | 0.941 | 0.947 |  | 1.02 | 0.726
NCI-H460 | 0.929 | 1.01 | 1 | 0.739 | 0.0357 | 1.08 | 0.915 | 0.895 | 0.657 | 0.441 | 0.961 | 0.999 | 0.996 | 0.991 | 1.03 | 0.905
NCI-H520 | 0.994 | 1.06 | 0.782 | 0.187 | 0.199 | 1.02 | 0.856 | 0.85 | 0.609 | 0.347 | 0.895 | 0.897 | 0.894 | 0.836 | 0.915 | 0.764
NCI-H522 | 0.889 | 1.11 | 1.01 | 0.734 | 0.375 | 1.08 | 1.01 | 0.973 | 0.703 | 0.679 | 0.919 | 0.954 | 0.888 |  | 0.893 | 
NCI-H596 | 0.951 | 0.949 | 0.95 | 0.697 | 0.222 | 0.987 | 0.86 | 0.919 | 0.792 | 0.711 | 1.02 | 1.04 | 1.09 | 0.98 | 0.967 | 0.989
NCI-H647 | 0.873 | 1.06 | 0.978 | 0.0791 | 0.038 | 1.08 | 0.862 | 0.97 | 0.879 | 0.542 |  | 1.01 | 1.01 | 0.783 |  | 1.07
NCI-H650 | 0.811 | 1.03 | 0.886 | 0.751 | 0.196 | 1.13 | 0.872 | 0.801 | 0.744 | 0.378 | 1.07 | 0.97 | 1.13 | 0.697 | 1.03 | 0.705
NCI-H661 | 0.986 | 1.05 | 1.02 | 0.995 | 0.535 | 1.02 | 0.924 | 0.925 | 0.836 | 0.753 | 0.933 | 0.95 | 0.945 | 1.06 | 1 | 0.993
NCI-H727 | 0.886 | 0.998 | 1.12 | 0.698 | 0.423 | 1.04 | 0.753 | 0.783 | 0.736 | 0.741 | 0.693 | 1.03 | 1 | 0.779 | 1.17 | 0.868
NCI-H838 | 0.982 | 1.05 | 0.951 | 0.875 | 0.151 | 1.02 | 0.903 | 0.955 | 0.945 | 0.767 | 0.86 |  | 0.972 | 0.888 | 0.928 | 0.852
NCI-H1299 | 1.03 | 1.02 | 1.02 | 0.577 | 0.158 | 1.08 | 0.981 | 1.01 | 0.995 | 0.968 | 0.976 | 1.02 | 1.02 |  | 0.976 | 0.932

Source: the supplement of paper PMC10307832
